The text below walks through data of patent US10188666B2, “Dendrogenin A and antineoplastic agents for the treatment of chemosensitive or chemoresistant tumors” (priority 2013, dated 2019).

Read-outs that look alike come from different tables or passages of the source.

One series concerns MV4-11 cells. The series can be described thus: MTT cell viability assay, MV4-11 cells. It counts as cell-based. The note with it: for sensitivity of MV4-11 cells (cell viability, in words): single agent. As for the experimental part: (§1) Briefly, effect of drugs alone and in combinations were determined for a 3-5 log scale of concentrations of drugs and with a constant ratio between the two drugs used for co-treatment. Cells were seeded in 96-well plates (50 000 cell/well). Cells were treated just after seeding, for 48 hours. Cell viability was determined with MTT assay. Cells were centrifuged 5 minutes at 1200 rpm, medium removed, 100 μl of MTT solution (1 mg/ml in PBS) added, incubated for 2 hours at 37° C., centrifuged, MTT solution removed and DMSO (100 μl) added to dissolve purple formazan formed by living cells. Absorbance of the solution was determined at 540 nm.
(§2) HL60, KG1, KG1a and MV4-11 cells were seeded in 96-well plates (50 000 cells/well). Cells were treated just after seeding with increasing doses of daunorubicin, for 48 hours. Cell viability was determined with MTT assay as follows: cells were centrifuged 5 minutes at 1200 rpm, medium removed, 100 μl of MTT solution (1 mg/ml in PBS) added, incubated for 2 hours at 37° C., centrifuged, MTT solution removed and DMSO (100 μl) added to dissolve purple formazan formed by living cells. Absorbance of the solution was determined at 540 nm.
(§3) HL60, KG1, KG1a and MV4-11 cells were seeded in 96-well plates (50 000 cells/well). Cells were treated just after seeding with increasing doses of cytarabine, for 48 hours.
(§4) HL60, KG1, KG1a and MV4-11 cells were seeded in 96-well plates (50 000 cells/well).
(§5) HL60, KG1, KG1a and MV4-11 cells were seeded in 96-well plates (50 000 cells/well). Cells were treated just after seeding with increasing doses of cisplatin, for 48 hours.
(§6) HL60, KG1, KG1a and MV4-11 cells were seeded in 96-well plates (50 000 cells/well). Cells were treated just after seeding with increasing doses of Dendrogenin A, for 48 hours.
(§7) MV4-11 cells were seeded in 96-well plates (50 000 cells/well).
as §7
In general terms: Formazan colour is commonly taken as a measure of viable cells.

The next series relates to KG1 cells. The series can be described thus: MTT cell viability assay, KG1 cells. It counts as cell-based. The note with it: 48 hours. As for the experimental part:
as §1, §2, §3, §4, §5, §6
(§8) KG1 cells were seeded in 96-well plates (50 000 cells/well).
as §8, §8
KG1 cells were seeded in 96-well plates (50 000 cells/well). Cells were treated just after seeding with increasing doses of Dendrogenin A and Cisplatin, for 48 hours.
as §8
KG1 cells were seeded in 96-well plates (50 000 cells/well). Cells were treated just after seeding with increasing doses of Dendrogenin A and arsenic trioxide, for 48 hours.
as §8

A further series has as its system KG1a cells. Nature of the series: MTT cell viability assay, KG1a cells. Type of series: cell-based. The note with it: for sensitivity of KG1a cells compared to KG1 cells (cell viability, in words): single agent. On the procedure: as §1, §2, §3, §4, §5, §6
(§9) KG1a cells were seeded in 96-well plates (50 000 cells/well).
as §9
KG1a cells were seeded in 96-well plates (50 000 cells/well). […]

Another series deals with HL60 cells. The series can be described thus: MTT cell viability assay, HL60 cells. Type of series: cell-based. As for the experimental part:
as §1, §2, §3, §4, §5, §6
(§10) HL60 cells were seeded in 96-well plates (50 000 cells/well).
HL60 cells were seeded in 96-well plates (50 000 cells/well). Cells were treated just after seeding with increasing doses of Dendrogenin A and Cisplatin, for 48 hours.
as §10
HL60 cells were seeded in 96-well plates (50 000 cells/well). Cells were treated just after seeding with increasing doses of Dendrogenin A and arsenic trioxide, for 48 hours.
as §10

Series [1] has as its system chemoresistant cancer cell line KG1a. Nature of the series: Cell death induction, Trypan blue counting, KG1a cells. It counts as cell-based. The note with it: 48 hours; for cell death induction by the antineoplastic agent alone: KG1a, Daunorubicin 0.5 μM or cytarabine 1 μM. On the procedure: In a 6-microwell plate was seeded 0.5·10^6 cells of KG1a cell line. The same day, Solvant vehicule or different concentrations of Dendrogenin A (final concentrations: 5 and 10 μM) alone or in combination with Daunorubicin (final concentration: 0.5 μM) or cytarabine (final concentration: 1 μM) were added into the well. After 48 hours of incubation, the cells suspensions were centrifuged and cell pellets were resuspended in the Trypan blue solution (0.25% (w/v) in PBS) and counted in a Malassez cell under a light microscope.

In series [2] the test system is drug sensitive cancer cell line KG1. Nature of the series: Cytotoxic activity, Trypan blue counting, KG1 cells. To be noted: for cytotoxic activity of the antineoplastic agent alone: KG1, Daunorubicin 0.05-0.5 μM or cytarabine 0.1-1 μM, 48 hours. As for the experimental part: In a 6-microwell plate was seeded 0.5.10^6 cells of KG1 cell line. […] Then, Daunorubicin (final concentration: 0.05, 0.1, 0.25 and 0.5 μM) or cytarabine (final concentration: 0.1, 0.2, 0.5 and 1 μM) were added to […]. After the cells were cultured for additional 48 hours, culture suspensions were centrifuged and cell pellets were resuspended in the Trypan blue solution (0.25% (w/v) in PBS) and counted in a Malassez cell under a light microscope.

Another series deals with AML patient cells. The series can be described thus: Cell death of AML patient samples, Annexin V-FitC/7-AAD flow cytometry. It counts as cell-based. To be noted: Dendrogenin A 5 μM alone, 48 hours. On the procedure:
In a 6-microwell plate were seeded 0.5.10^6 patient cells. The same day, Solvant vehicle or different concentrations of Dendrogenin A (final concentrations: 5 μM) alone or in combination with Daunorubicin (final concentration: 10 nM) were added into the well. After 48 hours of incubation, the cells suspensions were centrifuged and washed with PBS and cell pellets were resuspended in a labeling solution containing Annexin V-FitC and 7-AAD as described in the kit protocol (Annexin V-FitC/7-AAD staining kit, Roche Applied Science). Cells were then incubated for 15 minutes at room temperature in the dark and analyzed by Facs Flow cytometry.
(Flow cytometry measures light scatter and fluorescence of single cells or particles in a stream.)

For series [3], the target named is cholesterol epoxide hydrolase (Homo sapiens, UniProt Q15125). To be noted: de Medina et al., Nature Communications, 2013; cited from earlier work.
Sequence of cholesterol epoxide hydrolase (Q15125 whole entry): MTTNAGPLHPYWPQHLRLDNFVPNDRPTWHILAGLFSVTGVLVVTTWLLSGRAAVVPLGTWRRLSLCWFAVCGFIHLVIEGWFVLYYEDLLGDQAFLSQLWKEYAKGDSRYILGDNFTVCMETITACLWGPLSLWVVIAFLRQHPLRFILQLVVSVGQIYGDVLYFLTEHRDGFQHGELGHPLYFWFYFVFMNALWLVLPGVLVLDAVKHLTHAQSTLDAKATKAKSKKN
Where [4] appears, read: Homo sapiens, KG-1, KG1 cell line.
Setting [5] is: Homo sapiens, KG-1a, KG1a cell line, 48 hours, MTT, read-out: IC 50.

Turning to `O=c1[nH]cc(F)c(=O)[nH]1` [5-Fluorouracil], the IC50 in the series on MV4-11 cells (Homo sapiens, MV4-11, 48 h) was found to be 2160 µM; in the series on KG1 cells (setting [4]) it was 756 µM; in the series on KG1a cells (Homo sapiens, KG-1a, 48 h, heading: IC 50, KG1a cell line, 48 hours, MTT, read-out: IC 50) it was 3.99 µM; with HL60 cells (Homo sapiens, HL-60, 48 h), 2450 µM. The “sensitivity of MV4-11 cells (cell viability, in words)” value (shortened to “sensitivity of MV4-11 cells”) with MV4-11 cells (48 hours, MTT) is “more resistant to 5-FU compared to Daunorubicin or Cytarabine”. Also, in the series with KG1a cells (48 hours, MTT), the “sensitivity of KG1a cells compared to KG1 cells (cell viability, in words)” value is on record as “resistant”. For the same compound, the “sensitivity of HL60 cells (cell viability, in words)” value (shortened to “sensitivity of HL60 cells”) in the series with HL60 cells (single agent, 48 hours, MTT) is recorded as “more resistant to 5-FU compared to Daunorubicin or Cytarabine”.
With `N.N.[Cl][Pt][Cl]` [Cisplatin], the IC50 with MV4-11 cells (MV4-11 cell line, 48 hours, MTT, read-out: IC 50) is 7.2 µM; in the series on KG1 cells (KG1 cell line), 3.29 µM; in the series on KG1a cells (KG1a cell line, 48 hours, MTT, read-out: IC 50), 9.59 µM; in the series on HL60 cells (read-out: IC 50) it was 3.29 µM. Further, the “sensitivity of MV4-11 cells” value in the series on MV4-11 cells (48 hours, MTT) is “more resistant to Cisplatin compared to Daunorubicin or Cytarabine”. In the series with KG1a cells (48 hours, MTT), the “sensitivity of KG1a cells compared to KG1 cells (cell viability, in words)” value is listed as “resistant”. The “sensitivity of HL60 cells” value in the series on HL60 cells is “as sensible to Cisplatin as to Daunorubicin and Cytarabine”.
Take `Nc1ccn([C@@H]2O[C@H](CO)[C@@H](O)[C@@H]2O)c(=O)n1` [Cytarabine]: the IC50 with MV4-11 cells (Homo sapiens, MV4-11, 48 h) is 0.18 µM; with KG1 cells (setting [4]), 0.34 µM; in the series with KG1a cells (setting [5]), 1.53 µM; with HL60 cells (Homo sapiens, HL-60, 48 h), 0.16 µM. The “sensitivity of MV4-11 cells” value in the series on MV4-11 cells (48 hours, MTT) was “more sensitive than KG1 cells”. The “sensitivity of KG1a cells compared to KG1 cells (cell viability, in words)” value in the series on KG1a cells (48 hours, MTT) is on record as “resistant”. Also, the “sensitivity of HL60 cells” value in the series on HL60 cells (single agent, 48 hours, MTT) is “more sensitive than KG1 cells”. Further, the “cell death induction by the antineoplastic agent alone” value in series [1] is on record as “resistant”. For the same compound, the “cytotoxic activity of the antineoplastic agent alone” value in series [2] is “sensitive”.
Take `COc1cccc2c1C(=O)c1c(O)c3c(c(O)c1C2=O)C[C@@](O)(C(C)=O)C[C@@H]3O[C@H]1C[C@H](N)[C@H](O)[C@H](C)O1` [Daunorubicin]: the IC50 in the series on MV4-11 cells (Homo sapiens, MV4-11, 48 h) came out at 0.067 µM; in the series with KG1 cells (setting [4]) it was 0.064 µM; with KG1a cells (Homo sapiens, KG-1a, 48 h), 1.08 µM; in the series on HL60 cells (Homo sapiens, HL-60, 48 h), 0.062 µM. For the same compound, the “sensitivity of MV4-11 cells” value in the series with MV4-11 cells (48 hours, MTT) is recorded as “as sensitive as KG1 cells”. Besides, the “sensitivity of KG1a cells compared to KG1 cells (cell viability, in words)” value in the series on KG1a cells (48 hours, MTT) was “resistant”. Also, the “sensitivity of HL60 cells” value with HL60 cells is reported as “as sensitive as KG1 cells”. The “cell death induction by the antineoplastic agent alone” value in series [1] is given as “resistant”. Also, the “cytotoxic activity of the antineoplastic agent alone” value in series [2] is on record as “sensitive”.
For the compound `CC(C)CCC[C@@H](C)[C@H]1CC[C@H]2[C@@H]3C[C@@H](NCCc4cnc[nH]4)[C@@]4(O)C[C@@H](O)CC[C@]4(C)[C@H]3CC[C@]12C` [Dendrogenin A, 5α-hydroxy-6β-[2-(1H-imidazol-4-yl)ethylamino]cholestan-3β-ol], the IC50 worked out at 7.27 µM in the series on MV4-11 cells (Homo sapiens, MV4-11 cell line, 48 hours, MTT, read-out: IC 50); 8.86 µM in the series on KG1 cells (setting [4]); 13.2 µM in the series on KG1a cells (setting [5]); 8.06 µM in the series on HL60 cells (Homo sapiens, HL-60, HL60 cell line, 48 hours, MTT, read-out: IC 50). The “sensitivity of MV4-11 cells” value in the series with MV4-11 cells (48 hours, MTT) is “as sensitive as KG1 or KG1a cells”. In addition, the “sensitivity of KG1a cells compared to KG1 cells (cell viability, in words)” value in the series on KG1a cells (48 hours, MTT) was “as sensitive as KG1 cells”. Also, the “sensitivity of HL60 cells” value in the series on HL60 cells (single agent, 48 hours, MTT) is “as sensitive as KG1 or KG1a cells”. Besides, the “effect on resistance of KG1a cells to Daunorubicin” value in series [1] (Dendrogenin A 5 and 10 μM with Daunorubicin 0.5 μM) is “able to abolish this resistance”. Moreover, in series [1] (Dendrogenin A 5 and 10 μM with cytarabine 1 μM), the “effect on resistance of KG1a cells to Cytarabine” value is “able to abolish this resistance”. Moreover, the “effect on sensibility of KG1 cells to Daunorubicin” value in series [2] (Dendrogenin A 2.5 μM for 24 hours, then Daunorubicin 0.05-0.5 μM for 48 hours) is on record as “able to increase this sensibility”. Besides, the “effect on sensibility of KG1 cells to Cytarabine” value in series [2] (Dendrogenin A 2.5 μM for 24 hours, then cytarabine 0.1-1 μM for 48 hours) was “able to increase this sensibility”. Further, in the series on AML patient cells, the “cell death rate of tumor cells resistant to Daunorubicin” value was “high or moderate cell death rate”. For the same compound, the “inhibition of cholesterol epoxide hydrolase” value in series [3] is recorded as “selective inhibitor”.
